Laboratory results from US20220380341A1, “INHIBITORS OF HIV-1 NEF FOR THE TREATMENT OF HIV DISEASE” (priority 2018, published 2022).
Like-named read-outs stand apart in the source and are kept apart here.

Legend:
HIV-1NL4-3 = assay: HIV-1 infectivity assay in TZM-bl reporter cell line (LTR-luciferase, 48 h); assay type: cell-based; conditions: Human immunodeficiency virus 1, TZM-bl
Summary of the method: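 TZM-bl cells (HIV-1 LTR-luciferase) infected with HIV-1NL4-3 with compound at 1 μM; luciferase read 48 h later. Percent inhibition normalized to DMSO wild-type infection (0%) and Nef-defective HIV-1 infection (100% of Nef-dependent effect). Viability in uninfected TZM-bl cells by Cell Titer Blue.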

TZM-bl cell line = assay type: cell-based; conditions: human, 1 μM
Summary of the method: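 Read-out is luciferase from an integrated HIV-1 LTR reporter in TZM-bl cells, 48 h after HIV-1NL4-3 infection in the presence of 1 μM compound. Scale set by DMSO-treated wild-type-infected cells (0%) and Nef-defective virus (100% Nef-dependent effect). Cell Titer Blue measures cytotoxicity without virus.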

HIV-1 NefNL4-3 = HIV-1 NefNL4-3 (Human immunodeficiency virus type 1 group M subtype B, UniProt P03406, A33V/T15A/T51N/V11I); assay: Surface plasmon resonance binding to recombinant full-length Nef (NL4-3); conditions: for Nef NL4-3 Binding, SPR 1:1 or 2-site fitting KD1: Table 2, 1:1 Langmuir fit where the KD2 cell says '1 to 1 fitting', else 2-site fit; for T, minutes (residence time): 1:1 Langmuir fit, T = 1/koff; for RU30/RUNef (extent of binding): response units at 30 μM relative to Nef immobilized on the SPR chip
[1] = 48 h, Table 2, TZM-bl cells, 1 μM, 48 h, 100% = Nef-defective HIV-1, read-out: HIV-1 Infectivity % Inhibition Norm. to Δ-Nef @ 1 μM
[2] = 1.0 μM, TZM-bl reporter cell line, Table 4, read-out: % Infectivity Inhibition
[3] = KD, M, Table 4, SPR fit 1:1 Langmuir, KD = koff/kon
[4] = 48 h, Table 1, TZM-bl cells, 1 μM, 48 h, 100% = Nef-defective HIV-1, read-out: HIV-1 Infectivity % Inhibition Norm. to Δ-Nef @ 1 μM

SMILES	inhibition at 1 µM (HIV-1NL4-3; [1])	Percent Viability @ 1 μM (TZM-bl cells) (TZM-bl cell line)	Nef NL4-3 Binding, SPR 1:1 or 2-site fitting KD1 (HIV-1 NefNL4-3)	inhibition at 1 µM (HIV-1NL4-3; [2])	% Cell Viability (TZM-bl cell line)	Kd (HIV-1 NefNL4-3)	Kd (HIV-1 NefNL4-3; [3])	T, minutes (residence time) (HIV-1 NefNL4-3; Table 4)	RU30/RUNef (extent of binding) (HIV-1 NefNL4-3)	inhibition at 1 µM (HIV-1NL4-3; [4])
Oc1c(CC2CCOCC2)c(C2CCOCC2)nn1-c1cc(C(F)(F)F)n[nH]1 [Compound I-621, 3-(oxan-4-yl)-4-[(oxan-4-yl)methyl]-5′-(trifluoromethyl)-2′H-[1,3′-bipyrazol]-5-ol]	42.4%	95.3%	No interaction							
Oc1c(CC2CCOCC2)c(C2CC2)nn1-c1cc(C(F)(F)F)n[nH]1 [Compound I-622, 3-cyclopropyl-4-[(oxan-4-yl)methyl]-5′-(trifluoromethyl)-2′H-[1,3′-bipyrazol]-5-ol]	4.9%	98.5%	No interaction							
Oc1c(CCc2ccc(F)cc2)c(C2CCOCC2)nn1-c1cc(C(F)(F)F)n[nH]1 [Compound I-623, 4-[2-(4-fluorophenyl)ethyl]-3-(oxan-4-yl)-5′-(trifluoromethyl)-2′H-[1,3′-bipyrazol]-5-ol]	17.4%	100.7%		17.4%	100%	221 µM	221 µM	2.88E + 00 minutes	1.67E- 02	
CC(=O)N1CCC(c2nn(-c3nc4cc(Cl)ccc4[nH]3)c(O)c2CCC2CCOCC2)CC1 [Compound I-703, 1-{4-[1-(5-chloro-1H-1,3-benzodiazol-2-yl)-5-hydroxy-4-[2-(oxan-4-yl)ethyl]-1H-pyrazol-3-yl]piperidin-1-yl}ethan-1-one]		99.2%				1.54 µM				-8.1%
CC(=O)N1CCC(c2nn(-c3nc4cc(Cl)ccc4[nH]3)c(O)c2CCn2nccn2)CC1 [Compound I-704, 1-{4-[1-(5-chloro-1H-1,3-benzodiazol-2-yl)-5-hydroxy-4-[2-(2H-1,2,3-triazol-2-yl)ethyl]-1H-pyrazol-3-yl]piperidin-1-yl}ethan-1-one]		99.4%		6.6%	99.4%	3.62 µM	3.62 µM	7.61E + 00 minutes	1.92E- 03	6.6%
COC(=O)N1CCC(c2nn(-c3nc4cc(Cl)ccc4[nH]3)c(O)c2CCn2nccn2)CC1 [Compound I-705, methyl 4-[1-(5-chloro-1H-1,3-benzodiazol-2-yl)-5-hydroxy-4-[2-(2H-1,2,3-triazol-2-yl)ethyl]-1H-pyrazol-3-yl]piperidine-1-carboxylate]		100.9%				1.11 µM				-13.8%
CS(=O)(=O)N1CCC(c2nn(-c3nc4cc(Cl)ccc4[nH]3)c(O)c2CCC2CCOCC2)CC1 [Compound I-706, 1-(5-chloro-1H-1,3-benzodiazol-2-yl)-3-(1-methanesulfonylpiperidin-4-yl)-4-[2-(oxan-4-yl)ethyl]-1H-pyrazol-5-ol]		98.6%		9.8%	98.6%	1.17 µM	1.17 µM	3.95E + 00 minutes	2.34E- 03	9.8%
CS(=O)(=O)N1CCC(c2nn(-c3nc4cc(Cl)ccc4[nH]3)c(O)c2CCn2nccn2)CC1 [Compound I-707, 1-(5-chloro-1H-1,3-benzodiazol-2-yl)-3-(1-methanesulfonylpiperidin-4-yl)-4-[2-(2H-1,2,3-triazol-2-yl)ethyl]-1H-pyrazol-5-ol]		109.3%		0%	100%	1.98 µM	1.98 µM	4.33E + 00 minutes	1.81E- 03	-10.6%
